Experimental data as given in US8426447B2, “Spiro-tricyclic ring compounds as beta-secretase modulators and methods of use” (Amgen Inc., priority 2008, dated 2013).
Values belong to the compound of their own block, whether it stands above or below them.

Assays:
BACE1 [1] = molecular target: T1, BACE1 (Homo sapiens, UniProt P56817); assay: In Vitro Enzymatic BACE FRET (Fluorescence Resonance Energy Transfer) Assay; assay type: biochemical
How it was run: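 Buffer 0.05 M acetate pH 4.2 with 10% DMSO final and 100 uM genapol; reaction started with 50 nM FRET peptide substrate (fluorophore/quencher flanking BACE cleavage site), incubated one hour. Stopped with Tris buffer raising pH to neutrality, then fluorescence read.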

BACE1 [2] = molecular target: T1, BACE1; assay: In Vitro BACE Cell-based Assay (HEK cell assay): Aβ40 in conditioned medium of cells stably expressing Amyloid Precursor Protein, sandwich ELISA
How it was run: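 Read-out is time-resolved fluorescence of Aβ40 in supernatant, captured by pAb40 and detected with biotinylated 6E10 plus Streptavidin-Europium. Cells stably expressing APP received compounds for 24 h over 10 concentrations starting at 100 μM or 10 μM, final DMSO 0.1%.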

[3] = Table 1, read-out: BACE1 FRET assay
[4] = Table 1, Aβ40, 24 h incubation, read-out: HEK cell assay
[5] = Table III, IC50's in uM ranges, read-out: BACE1 FRET assay
[6] = Table III, IC50's in uM ranges, read-out: HEK cell assay
[7] = HEK cells, read-out: HEK cell assay
[8] = Table IV, class symbols, read-out: BACE1 FRET assay
[9] = Table IV, class symbols, read-out: HEK cell assay
[10] = in vitro BACE FRET enzyme assay, IC50 class symbols, read-out: BACE1 FRET assay
[11] = HEK cell-based assay, Aβ40 in conditioned medium, IC50 class symbols, read-out: HEK cell assay

T1 sequence (P56817 46-501, species assumed): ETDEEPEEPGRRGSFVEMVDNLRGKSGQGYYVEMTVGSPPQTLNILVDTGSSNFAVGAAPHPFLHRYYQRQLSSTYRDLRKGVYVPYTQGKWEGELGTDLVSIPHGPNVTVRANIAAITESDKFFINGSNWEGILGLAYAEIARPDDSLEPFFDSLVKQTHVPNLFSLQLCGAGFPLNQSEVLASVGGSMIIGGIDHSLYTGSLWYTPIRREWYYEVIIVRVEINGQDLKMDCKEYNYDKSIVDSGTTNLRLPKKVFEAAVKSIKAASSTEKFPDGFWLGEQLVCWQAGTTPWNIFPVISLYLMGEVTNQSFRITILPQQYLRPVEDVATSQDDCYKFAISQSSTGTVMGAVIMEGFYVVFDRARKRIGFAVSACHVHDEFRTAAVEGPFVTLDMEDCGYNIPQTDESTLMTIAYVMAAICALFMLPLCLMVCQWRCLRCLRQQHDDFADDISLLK

Structure (SMILES): Cc1ccc2c(c1)Oc1ccc(-c3cccc(OC(F)(F)F)c3)cc1[C@]21COC(N)=N1 [Example 24, (4S)-6′-methyl-2′-(3-(trifluoromethoxy)phenyl)spiro[1,3-oxazole-4,9′-xanthen]-2-amine]
IC50 (BACE1 [1]; [3]): > 5 µM
IC50 (BACE1 [2]; [4]): 1 to 5 µM

Structure (SMILES): Cc1cncc(-c2ccc3c(c2)[C@@]2(COC(N)=N2)c2cc(OCC(C)(C)C)ccc2O3)c1 [Example 81, (4S)-2′-(2,2-dimethylpropoxy)-7′-(5-methyl-3-pyridinyl)spiro[1,3-oxazole-4,9′-xanthen]-2-amine]
IC50 (BACE1 [1]; Table II, read-out: BACE1 FRET assay): < 0.1 µM
IC50 (BACE1 [2]; Table II, Aβ40, 24 h incubation, read-out: HEK cell assay): < 0.1 µM

Structure (SMILES): NC1=N[C@]2(CO1)c1cc(OC3CCC3)ccc1Oc1ccc(-c3cccnc3)cc12 [compound 195]
IC50 (BACE1 [1]; [5]): < 0.1 µM
IC50 (BACE1 [2]; [6]): 0.1 to 1 µM

Structure (SMILES): CC(C)(C)CNc1cc2c(cn1)Oc1ccc(-c3cccnc3)cc1[C@@]21COC(N)=N1 [compound 440]
IC50 (BACE1 [1]; read-out: BACE1 FRET assay): < 0.1 µM
IC50 (BACE1 [2]; [7]): < 0.1 µM

Structure (SMILES): NC1=N[C@@]2(CO1)c1cc(-c3cncc(F)c3)ccc1Oc1cnc(C3=CCOCC3)cc12 [compound 368, (5S)-3-(3,6-dihydro-2H-pyran-4-yl)-7-(5-fluoro-3-pyridinyl)spiro[chromeno[2,3-c]pyridine-5,4′-[1,3]oxazol]-2′-amine]
IC50 (BACE1 [1]; [10]): < 0.1 µM
IC50 (BACE1 [2]; [11]): < 0.1 µM

Structure (SMILES): NC1=N[C@@]2(CO1)c1cc(-c3cccc(F)c3)ccc1Oc1cnc(-c3cccc(F)c3)cc12 [compound 366]
IC50 (BACE1 [1]; [10]): < 0.1 µM
IC50 (BACE1 [2]; [11]): 0.1 to 1 µM

Structure (SMILES): NC1=NC2(CO1)c1cc(-c3cccnc3)ccc1Oc1ncc(-c3cccnc3)cc12 (centres unmarked) [Example 113, 3,7-di-3-pyridinylspiro[chromeno[2,3-b]pyridine-5,4′-[1,3]oxazol]-2′-amine]
IC50 (BACE1 [1]; [5]): < 0.1 µM
IC50 (BACE1 [2]; [6]): < 0.1 µM

Structure (SMILES): CC(C)(O)COc1ccc2c(c1)[C@]1(COC(N)=N1)c1cc(-c3ccccc3)ccc1O2 [compound 221]
IC50 (BACE1 [1]; [5]): < 0.1 µM
IC50 (BACE1 [2]; [6]): 0.1 to 1 µM

Structure (SMILES): COc1ccc2c(c1)C1(COC(N)=N1)c1cc(-c3cccc(Cl)c3F)ccc1O2 (centres unmarked) [Example 18, 2′-(3-chloro-2-fluorophenyl)-7′-methoxyspiro[1,3-oxazole-4,9′-xanthen]-2-amine]
IC50 (BACE1 [1]; [3]): 1 to 5 µM
IC50 (BACE1 [2]; [4]): > 5 µM

Structure (SMILES): NC1=N[C@@]2(CO1)c1cc(-c3cccnc3)ccc1Oc1ccc(N3CCOCC3)nc12 [compound 334]
IC50 (BACE1 [1]; [10]): 0.1 to 1 µM
IC50 (BACE1 [2]; [11]): 0.1 to 1 µM

Structure (SMILES): NC1=N[C@@]2(CO1)c1cc(-c3cc(F)ccc3F)ccc1Oc1ncc(N3C[C@@H]4C[C@H]3CO4)cc12 [compound 453]
IC50 (BACE1 [1]; read-out: BACE1 FRET assay): < 0.1 µM
IC50 (BACE1 [2]; [7]): < 0.1 µM

Structure (SMILES): COCC[C@@H]1CN(c2ccc3c(c2)[C@]2(COC(N)=N2)c2cc(-c4cccnc4)ccc2O3)CCO1 [compound 421]
IC50 (BACE1 [1]; read-out: BACE1 FRET assay): 0.1 to 1 µM
IC50 (BACE1 [2]; [7]): 0.1 to 1 µM

Second part, the compound after the results:

IC50 (BACE1 [1]; [8]): < 0.1 µM
IC50 (BACE1 [2]; [9]): 0.1 to 1 µM
Structure (SMILES): CC(C)(C)C#Cc1cnc2c(c1)[C@]1(COC(N)=N1)c1cc(-c3cncnc3)cc(F)c1O2 [compound 537]

IC50 (BACE1 [1]; read-out: BACE1 FRET assay): < 0.1 µM
IC50 (BACE1 [2]; read-out: HEK cell assay): < 0.1 µM
Structure (SMILES): Cc1cccc(-c2ccc3c(c2)[C@]2(COC(N)=N2)c2cc(-c4cncnc4)ccc2O3)c1 [compound 998]

IC50 (BACE1 [1]; BACE1 FRET assay (uM)): < 0.1 µM
IC50 (BACE1 [2]; HEK cell assay (uM), HEK cells): < 0.1 µM
Structure (SMILES): NC1=N[C@@]2(CO1)c1cc(-c3cccnc3F)ccc1Oc1cnc(-c3ccccc3)cc12 [compound 494]

IC50 (BACE1 [1]; [8]): < 0.1 µM
IC50 (BACE1 [2]; [9]): < 0.1 µM
Structure (SMILES): NC1=N[C@@]2(CO1)c1cc(-c3cncnc3)ccc1Oc1cnc(-c3ccccc3)cc12 [compound 546]

IC50 (BACE1 [1]; [8]): < 0.1 µM
IC50 (BACE1 [2]; [9]): 0.1 to 1 µM
Structure (SMILES): CC(C)(C)COc1ccc2c(c1)[C@]1(COC(N)=N1)c1cc(-c3cnc(Cl)nc3)ccc1O2 [compound 881]

IC50 (BACE1 [1]; read-out: BACE1 FRET assay): < 0.1 µM
IC50 (BACE1 [2]; [7]): < 0.1 µM
Structure (SMILES): NC1=N[C@@]2(CO1)c1cc(-c3cc(Cl)ccc3F)ccc1Oc1ncc(N3CCOCC3)cc12 [compound 457]

IC50 (BACE1 [1]; read-out: BACE1 FRET assay): 0.1 to 1 µM
IC50 (BACE1 [2]; read-out: HEK cell assay): 1 to 5 µM
Structure (SMILES): N#Cc1ccccc1Oc1ccc2c(c1)[C@]1(COC(N)=N1)c1cc(-c3cccnc3)ccc1O2 [compound 986]

IC50 (BACE1 [1]; [8]): > 5 µM
IC50 (BACE1 [2]; [9]): > 5 µM
Structure (SMILES): NC1=N[C@]2(CO1)c1cc(Br)ccc1Oc1ncccc12 [compound 600]

IC50 (BACE1 [1]; read-out: BACE1 FRET assay): < 0.1 µM
IC50 (BACE1 [2]; read-out: HEK cell assay): < 0.1 µM
Structure (SMILES): NC1=N[C@@]2(CO1)c1cc(-c3cccnc3)ccc1Oc1cnc(C3=CCOCC3)cc12 [compound 790]

IC50 (BACE1 [1]; read-out: BACE1 FRET assay): 1 to 5 µM
IC50 (BACE1 [2]; [7]): > 5 µM
Structure (SMILES): NC1=N[C@]2(CO1)c1cc(C3=CCOCC3)ccc1Oc1cnc(Cl)cc12 [compound 499]

IC50 (BACE1 [1]; [8]): < 0.1 µM
IC50 (BACE1 [2]; [9]): < 0.1 µM
Structure (SMILES): NC1=N[C@@]2(CO1)c1cc(C#CC3CC3)ccc1Oc1ncc(N3CCOCC3)cc12 [compound 607]

IC50 (BACE1 [1]; [8]): 0.1 to 1 µM
IC50 (BACE1 [2]; [9]): 0.1 to 1 µM
Structure (SMILES): NC1=N[C@]2(CO1)c1cc(-c3cccnc3)ccc1Oc1ncccc12 [compound 635]

IC50 (BACE1 [1]; [8]): < 0.1 µM
IC50 (BACE1 [2]; [9]): 0.1 to 1 µM
Structure (SMILES): CC(C)(C)OC(=O)N1CC=C(c2ccc3c(c2)[C@]2(COC(N)=N2)c2cc(-c4cccnc4)ccc2O3)CC1 [compound 819]
